Test results: patent US20080064679A1, “Water Soluble Cannabinoids” (priority 2004, published 2008)
Where two headings read alike, the source gives them in different places.

Tests used:
[1] = biological target: T1, human CB2 receptor (Homo sapiens, UniProt P34972); assay: CB2 receptor binding, [3H]CP55,940 displacement in membranes of transfected cells; conditions: Table 1B, mean±SEM
T1 construct: expressed in transfected cells; b94 says HEK for CB2
Procedure: (§1) cLogP calculations. Absolute solubility determinations were not performed. Rather, cLogP calculations were performed using the CS ChemDraw Ultra software (Cambridge Soft Corporation, Cambridge, Mass.). Receptor Binding. HEK-293 cells stably expressing the human CB1 receptor were cultured in DMEM with 10% FBS and Chinese Hamster Ovary (CHO) cells stably expressing the human CB2 receptor were cultured in DMEM with 10% FCS. Cells were harvested by replacement of the media with cold phosphate-buffered saline containing 1 mM EDTA followed by centrifugation at 1000×g for 5 min at 4° C. The pellet was resuspended in 50 mM Tris-HCl containing 320 mM sucrose, 2 mM EDTA and 5 mM MgCl2 (pH 7.4) (centrifugation buffer), then centrifuged at 1000×g for 10 min at 4° C., and the resulting supernatant was saved. This process was repeated twice. The supernatant fractions were combined and centrifuged at 40,000×g for 30 min at 4° C. The resulting P2 pellet was resuspended in assay buffer (50 mM Tris-HCl (pH 7.4), 3 mM MgCl2, 0.2 mM EGTA, and 100 mM NaCl) and protein was determined by the method of Bradford ENRfu(Bradford 1976). Membranes were stored at −80° C. until use. […] The assay was incubated at 30° C. for 1 hr and terminated by addition of ice cold 50 mM Tris-HCl plus BSA (1 mg/ml) (pH 7.4) followed by filtration under vacuum through Whatman GF/B glass fiber filters with 3 washes with cold Tris buffer. Bound radioactivity was determined by liquid scintillation spectrophotometry at 50% efficiency after extraction by shaking samples for 30-60 min with Budget-Solve scintillation fluid. Data are reported as the mean±SEM of three experiments, each performed in triplicate. Ki values were calculated from displacement data using EBDA (Equilibrium Binding Data Analysis; BIOSOFT, Milltown, N.J.). [^35S]GTPγS Binding Assays. Concentration-effect curves were generated by incubating membranes (10 μg prepared from CB1 expressing cells as described above) in assay buffer containing BSA (1 mg/ml) with various concentrations of test compounds in the presence of 20 μM GDP and 0.1 nM [^35S]GTPγS in a 1 ml total volume. […] Basal binding was assessed in the absence of agonist, and nonspecific binding was measured in the presence of 10 μM GTPγS. The reaction was incubated for 90 min at 30° C. and terminated by filtration under vacuum through Whatman GF/B glass fiber filters with 3 washes with cold (4° C.) Tris buffer (50 mM Tris-HCl, pH 7.4). Bound radioactivity was determined by liquid scintillation spectrophotometry at 95% efficiency after extraction overnight in ScintiSafe Econo 1 scintillation fluid. Data are reported as mean±SEM of three experiments, each performed in triplicate. Nonlinear regression analysis was conducted by iterative fitting using JMP (SAS for Macintosh). Net-stimulated [^35S]GTPγS binding is defined as [^35S]GTPγS binding in the presence of drug minus basal and percent stimulation is expressed as (net stimulated [^35S]GTPγS binding/basal)×100%. Behavioral Evaluations. All animals were allowed to acclimate to the observation room overnight. Behavioral effects were assessed in the tetrad model in order to measure potency in producing antinociception, catalepsy, hypothermia, and hypomobility. The baselines for tail-flick latency (2-4 seconds) and rectal temperature were determined prior to i.v. injections. Baseline rectal temperatures were measured using a telethermometer and a thermometer probe inserted to 25 mm (Yellow Springs Instrument Co., Yellow Springs, Ohio). The mice were then given either an i.v. i.c.v. injection of the analog. The mice were placed in individual photocell activity chambers 5 min later. Spontaneous activity was monitored for 10 min in a Digiscan Animal Activity Monitor (Omnitech Electronice, Inc., Columbus, Ohio) as measured by the number of interruptions of 16 photocell beams per chamber. The total number of beam interruptions during the 10-min period was determined and presented as total counts.

[2] = biological target: T2, human CB1 receptor (Homo sapiens, UniProt P21554); assay: CB1 receptor binding, [3H]CP55,940 displacement in membranes of transfected cells; conditions: CB1 Ki
T2 construct: expressed in transfected cells; b94 says CHO for CB1
T2 sequence (P21554 whole entry): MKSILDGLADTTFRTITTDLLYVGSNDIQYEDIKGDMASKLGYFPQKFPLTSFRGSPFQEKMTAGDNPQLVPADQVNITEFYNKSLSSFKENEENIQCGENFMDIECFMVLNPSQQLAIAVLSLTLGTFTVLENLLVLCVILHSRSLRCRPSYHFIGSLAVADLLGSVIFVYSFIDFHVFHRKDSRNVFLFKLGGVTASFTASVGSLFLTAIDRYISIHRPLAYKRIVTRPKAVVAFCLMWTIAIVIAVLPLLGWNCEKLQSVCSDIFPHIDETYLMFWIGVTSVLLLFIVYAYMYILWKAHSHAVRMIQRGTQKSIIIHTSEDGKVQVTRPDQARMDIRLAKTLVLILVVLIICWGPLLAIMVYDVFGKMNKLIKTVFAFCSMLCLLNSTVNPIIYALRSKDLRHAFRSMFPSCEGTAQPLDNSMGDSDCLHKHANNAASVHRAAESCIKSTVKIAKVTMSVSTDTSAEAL
Procedure: (§2) For the in vivo studies, the drugs were dissolved in either saline or emulphor:ethanol:saline (E:E:S) as indicated.
as §1, with “chamber.” for “chamber. The total number of beam interruptions during the 10-min period was determined and presented as total counts.”

[3] = biological target: T2, human CB1 receptor; assay: [35S]GTPγS binding assay in membranes of CB1 expressing cells; format: biochemical
Procedure: as §2
as §1, with “chamber.” for “chamber. The total number of beam interruptions during the 10-min period was determined and presented as total counts.”

[4] = Procedure: By “water-soluble” we mean that 1 mg of material in 1 ml of water gives a clear solution and is water miscible.
as §2

[5] = tested on: mice; assay: Rectal temperature (R.T.), mouse tetrad; format: in vivo; conditions: Mus musculus, iv, vehicle E:E:S (1:1:18), read-out: R.T. ED50 (lowering rectal temperature)
[6] = tested on: mice; assay: Tetrad model, all four behavioral measures together (time course, oral and i.c.v. administration); format: in vivo, mouse; conditions: i.c.v.; analogs dissolved in water, THC in emulphor:ethanol:saline; Table 5 not given
[7] = tested on: mice; assay: Spontaneous activity (S.A.), mouse tetrad; format: in vivo; conditions: Mus musculus, iv, vehicle E:E:S (1:1:18), read-out: S.A. ED50 (reducing spontaneous activity)
[8] = tested on: mice; assay: Tail-flick antinociception (T.F.), mouse tetrad; format: in vivo; conditions: Mus musculus, iv, mice, i.v., vehicle E:E:S (1:1:18); read-out: T.F. ED50 (antinociception in the tail-flick procedure)
[9] = 1 mg of analog in 1 ml of water, visual observation

T1 sequence (P34972 whole entry): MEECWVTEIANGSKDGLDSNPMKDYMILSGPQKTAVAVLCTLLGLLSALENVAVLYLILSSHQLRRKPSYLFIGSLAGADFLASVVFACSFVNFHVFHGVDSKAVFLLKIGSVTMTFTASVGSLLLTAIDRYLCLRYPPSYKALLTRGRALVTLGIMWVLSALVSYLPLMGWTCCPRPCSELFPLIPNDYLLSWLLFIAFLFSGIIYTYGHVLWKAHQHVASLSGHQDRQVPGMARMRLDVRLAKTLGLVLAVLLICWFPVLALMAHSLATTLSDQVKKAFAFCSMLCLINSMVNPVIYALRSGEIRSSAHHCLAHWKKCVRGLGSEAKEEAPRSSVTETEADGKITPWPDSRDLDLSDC

**Q.** Which results are given for `CC1=CC[C@@H]2[C@@H](C1)c1c(O)cc(C(C)(C)CCCCN(C(=O)N3CCOCC3)C(=O)N3CCOCC3)cc1OC2(C)C` [O-2620, Di(morpholino-1-carboxylic acid) amide]?
**A.** Ki ([1]; read-out: CB2 Ki): 0.772 ± 0.0605 µM; Ki [2]: 3.02 ± 0.579 µM

**Q.** With `CC1=CC[C@@H]2[C@@H](C1)c1c(O)cc(C(C)(C)CCCCNC(=O)N3CCOCC3)cc1OC2(C)C` [O-2619, Morpholino-1-carboxylic acid amide] as the compound, how does the EC50 ([3]; CB1 EC50, [35S]GTPγS binding, mean±SEM) read?
**A.** 0.086 ± 0.0031 µM

**Q.** What about the Emax ([3]; maximal GTPγS binding as percentage of stimulation produced by CP 55,940, read-out: CB1 % CP Stim) of the same compound?
**A.** 116 ± 7.94%

**Q.** What about the “Solubility (water-soluble)” value [4] of the same compound?
**A.** No

**Q.** What about the Ki ([1]; read-out: CB2 Ki) of the same compound?
**A.** 0.00226 ± 0.00038 µM

**Q.** What about the Ki [2] of the same compound?
**A.** 0.0186 ± 0.00394 µM

**Q.** With `CC1=CC[C@@H]2[C@@H](C1)c1c(O)cc(C(C)(C)CCCCNC(=O)Cc3nc(-c4ccccc4)oc3C)cc1OC2(C)C` [O-2590, 5-Methyl-2-phenyl-oxazol-4-yl-acetamide] as the compound, how does the “Solubility (water-soluble)” value [4, 9] read?
**A.** No

**Q.** And the Ki ([1]; CB2 Ki)?
**A.** 0.169 ± 0.0391 µM

**Q.** And the Ki ([2]; Table 1B, mean±SEM)?
**A.** 0.89 ± 0.161 µM

**Q.** Which ED50 [5] does the source give for `CCCCCc1cc(O)c2c(c1)OC(C)(C)C1CCC(C)=CC21` (stereo not drawn) [Δ^9-THC, Δ^9-tetrahydrocannabinol, reference compound] here?
**A.** 2.23 µmol/kg

**Q.** What about the “Solubility (water-soluble)” value [4, 9] of the same compound?
**A.** No

**Q.** And the “Activity in the behavioral tests after i.c.v. injection” value [6]?
**A.** active with similar potencies in all tests, with the exception of weak antinociceptive activity

**Q.** What about the ED50 [7] of the same compound?
**A.** 2.23 µmol/kg

**Q.** What about the ED50 [8] of the same compound?
**A.** 2.77 µmol/kg
